Laboratory results taken from US7138361B2, “Herbicidal heterocycles” (E. I. du Pont de Nemours and Company, priority 2000, dated 2006).

Legend:
Format in all cases: in vivo
[1] = test system: barnyardgrass (Echinochloa crus-galli); assay: Test B flooded paddy test; conditions: Rate 1000 g/ha, scale of 0 to 100 where 0 is no effect and 100 is complete control, visually evaluated after 13 to 15 days
In short: (§1)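 2-leaf plants, flooded paddy; greenhouse 13–15 d post-treatment; visual rating vs controls, 0–100 scale (0 = no effect, 100 = complete control); dash = no result.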

[2] = test system: duck salad (Heteranthera limosa); assay: Test B flooded paddy test; conditions: Rate 1000 g/ha, scale of 0 to 100 where 0 is no effect and 100 is complete control, visually evaluated after 13 to 15 days
In short: as §1

rice (Oryza saliva) [3] = assay: Test B flooded paddy test; conditions: Rate 1000 g/ha, scale of 0 to 100 where 0 is no effect and 100 is complete control, visually evaluated after 13 to 15 days
In short: as §1

[4] = test system: smallflower flatsedge (Cyperus difformis); assay: Test B flooded paddy test; conditions: Rate 1000 g/ha, scale of 0 to 100 where 0 is no effect and 100 is complete control, visually evaluated after 13 to 15 days
In short: as §1

[5] = test system: pigweed (Amaranthus retroflexus); assay: Test B postemergence; conditions: 13 to 15 days
In short: (§2)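 Pre: seeded pots sprayed, chemical in non-phytotoxic solvent/surfactant mix. Post: plants 2–18 cm, 1–4 leaf, same formulation. Greenhouse 13–15 d; visual % control vs untreated, 0–100 scale.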

[6] = test system: crabgrass (Digitaria sanguinalis); assay: Test B postemergence; conditions: 13 to 15 days
In short: as §2

[7] = test system: barnyardgrass (Echinochloa crus-galli); assay: Test B postemergence; conditions: 13 to 15 days
In short: as §2

[8] = test system: Surinam grass (Brachiaria decumbens); assay: Test B postemergence; conditions: 13 to 15 days
In short: as §2

[9] = test system: giant foxtail (Setaria faberii); assay: Test B postemergence; conditions: 13 to 15 days
In short: as §2

[10] = test system: blackgrass (Alopecurus myosuroides); assay: Test B postemergence; conditions: 13 to 15 days
In short: as §2

[11] = test system: velvetleaf (Abutilon theophrasti); assay: Test B postemergence; conditions: 13 to 15 days
In short: as §2

[12] = test system: lambsquarters (Chenopodium album); assay: Test B postemergence; conditions: 13 to 15 days
In short: as §2

[13] = test system: wheat (Triticum aestivum); assay: Test B postemergence; conditions: 13 to 15 days
In short: as §2

[14] = test system: cocklebur (Xanthium strumarium); assay: Test B postemergence; conditions: 13 to 15 days
In short: as §2

wild oat (Avena fatua) = assay: Test B postemergence; conditions: 13 to 15 days
In short: as §2

[15] = test system: morning glory (Ipomoea hederacea); assay: Test B postemergence; conditions: 13 to 15 days
In short: as §2

corn (Zea mays) [16] = assay: Test B postemergence; conditions: 13 to 15 days
In short: as §2

[17] = test system: pigweed (Amaranthus retroflexus); assay: Test B preemergence
In short: as §2

[18] = test system: crabgrass (Digitaria sanguinalis); assay: Test B preemergence
In short: as §2

[19] = test system: barnyardgrass (Echinochloa crus-galli); assay: Test B preemergence
In short: as §2

[20] = test system: Surinam grass (Brachiaria decumbens); assay: Test B preemergence
In short: as §2

[21] = test system: giant foxtail (Setaria faberii); assay: Test B preemergence
In short: as §2

[22] = test system: velvetleaf (Abutilon theophrasti); assay: Test B preemergence
In short: as §2

[23] = test system: lambsquarters (Chenopodium album); assay: Test B preemergence
In short: as §2

rice (Oryza saliva) [24] = assay: Test B preemergence
In short: as §2

[25] = test system: cocklebur (Xanthium strumarium); assay: Test B preemergence; conditions: Preemergence, Rate 500 g/ha; scale 0 to 100, 0 no effect, 100 complete control
In short: as §2

[26] = test system: morning glory (Ipomoea hederacea); assay: Test B preemergence
In short: as §2

corn (Zea mays) [27] = assay: Test B preemergence
In short: as §2

[28] = test system: barnyardgrass (Echinochloa crus-galli); assay: Test C flooded paddy test; conditions: for Barnyardgrass plant response rating: Flooded Paddy, scale 0 to 100, 0 no effect, 100 complete control; for Plant response rating, Barnyardgrass: flooded paddy test, scale 0 to 100 (0 no effect, 100 complete control)
In short: (§3)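 Plants were grown to the 2-leaf stage under flooded paddy conditions and treated. They were then kept in a greenhouse for 12 to 14 days and visually rated against untreated controls on a 0–100 scale, where 0 is no effect and 100 is complete control.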

[29] = test system: duck salad (Heteranthera limosa); assay: Test C flooded paddy test; conditions: for Ducksalad plant response rating: Flooded Paddy, scale 0 to 100, 0 no effect, 100 complete control; for Plant response rating, Ducksalad: flooded paddy test, scale 0 to 100 (0 no effect, 100 complete control)
In short: as §3

rice (Oryza saliva) [30] = assay: Test C flooded paddy test; conditions: for Rice plant response rating: Flooded Paddy, scale 0 to 100, 0 no effect, 100 complete control; for Plant response rating, Rice: flooded paddy test, scale 0 to 100 (0 no effect, 100 complete control)
In short: as §3

[31] = test system: smallflower flatsedge (Cyperus difformis); assay: Test C flooded paddy test; conditions: for Flatsedge plant response rating: Flooded Paddy, scale 0 to 100, 0 no effect, 100 complete control; for Plant response rating, Flatsedge: flooded paddy test, scale 0 to 100 (0 no effect, 100 complete control)
In short: as §3

[32] = Rate 125 g/ha, scale 0 (no effect) to 100 (complete control)
[33] = Rate 500 g/ha, scale 0 to 100, 0 is no effect, 100 is complete control
[34] = Preemergence, Rate 500 g/ha, scale 0 to 100, 0 no effect, 100 complete control
[35] = preemergence, Rate 125 g/ha, scale of 0 to 100 where 0 is no effect and 100 is complete control, 13 to 15 days

Compound: Cc1cc(N2CCC(n3ccc(C(C)(C)C)n3)C2=O)ccc1Cl (stereo not shown) [Compound 53]
- Plant response rating, Barnyardgrass [1]: 100
- Plant response rating, Ducksalad [2]: 30
- Plant response rating, Rice (rice (Oryza saliva) [3]): 20
- Plant response rating, Flatsedge [4]: 90
- Plant response rating, Pigweed [5, 32]: 80
- Plant response rating, Pigweed [5, 33]: 90
- Plant response rating, Crabgrass [6, 32]: 0
- Plant response rating, Crabgrass [6, 33]: 0
- Plant response rating, Barnyardgrass [7, 32]: 0
- Plant response rating, Barnyardgrass [7, 33]: 0
- Plant response rating, Surinam grass [8, 32]: 0
- Plant response rating, Surinam grass [8, 33]: 0
- Plant response rating, Foxtail, Giant [9, 32]: 0
- Plant response rating, Foxtail, Giant [9, 33]: 0
- Plant response rating, Blackgrass [10, 32]: 0
- Plant response rating, Blackgrass [10, 33]: 0
- Plant response rating, Velvetleaf [11, 32]: 0
- Plant response rating, Velvetleaf [11, 33]: 0
- Plant response rating, Lambsquarters [12, 32]: 40
- Plant response rating, Lambsquarters [12, 33]: 80
- Plant response rating, Wheat [13, 32]: 0
- Plant response rating, Wheat [13, 33]: 0
- Plant response rating, Cocklebur [14, 32]: 0
- Plant response rating, Cocklebur [14, 33]: 0
- Plant response rating, Wild Oat (wild oat (Avena fatua); [32]): 0
- Plant response rating, Wild Oat (wild oat (Avena fatua); [33]): 0
- Plant response rating, Morningglory [15, 32]: 0
- Plant response rating, Morningglory [15, 33]: 10
- Plant response rating, Corn (corn (Zea mays) [16]; [32]): 0
- Plant response rating, Corn (corn (Zea mays) [16]; [33]): 10
- Plant response rating, Pigweed [17, 34]: 100
- Plant response rating, Pigweed [17, 35]: 100
- Plant response rating, Crabgrass [18, 34]: 0
- Plant response rating, Crabgrass [18, 35]: 0
- Plant response rating, Barnyardgrass [19, 34]: 90
- Plant response rating, Barnyardgrass [19, 35]: 0
- Plant response rating, Surinam grass [20, 34]: 0
- Plant response rating, Surinam grass [20, 35]: 0
- Plant response rating, Foxtail, Giant [21, 34]: 0
- Plant response rating, Foxtail, Giant [21, 35]: 0
- Plant response rating, Velvetleaf [22, 34]: 0
- Plant response rating, Velvetleaf [22, 35]: 0
- Plant response rating, Lambsquarters [23, 34]: 100
- Plant response rating, Lambsquarters [23, 35]: 100
- Plant response rating, Rice (rice (Oryza saliva) [24]; [34]): 0
- Plant response rating, Rice (rice (Oryza saliva) [24]; [35]): 0
- Plant response rating, Cocklebur [25]: 0
- Plant response rating, Morningglory [26, 34]: 0
- Plant response rating, Morningglory [26, 35]: 0
- Plant response rating, Corn (corn (Zea mays) [27]; [34]): 0
- Plant response rating, Corn (corn (Zea mays) [27]; [35]): 0
- Barnyardgrass plant response rating ([28]; Rate 250 g/ha): 70
- Barnyardgrass plant response rating ([28]; Rate 500 g/ha): 100
- Plant response rating, Barnyardgrass ([28]; Rate 62 g/ha): 20
- Plant response rating, Barnyardgrass ([28]; Rate 125 g/ha): 30
- Ducksalad plant response rating ([29]; Rate 250 g/ha): 50
- Ducksalad plant response rating ([29]; Rate 500 g/ha): 60
- Plant response rating, Ducksalad ([29]; Rate 62 g/ha): 20
- Plant response rating, Ducksalad ([29]; Rate 125 g/ha): 40
- Rice plant response rating (rice (Oryza saliva) [30]; Rate 250 g/ha): 0
- Rice plant response rating (rice (Oryza saliva) [30]; Rate 500 g/ha): 0
- Plant response rating, Rice (rice (Oryza saliva) [30]; Rate 62 g/ha): 0
- Plant response rating, Rice (rice (Oryza saliva) [30]; Rate 125 g/ha): 0
- Flatsedge plant response rating ([31]; Rate 250 g/ha): 90
- Flatsedge plant response rating ([31]; Rate 500 g/ha): 100
- Plant response rating, Flatsedge ([31]; Rate 62 g/ha): 80
- Plant response rating, Flatsedge ([31]; Rate 125 g/ha): 90
